Consider 3 compounds from US7838533B2, “Azaindole inhibitors of MTP and ApoB” (Merck Patent GmbH, priority 2004, dated 2010).

The target of assay [1] is T1, microsomal triglyceride transfer protein (MTP) (Mesocricetus auratus, UniProt P55158).
T1 construct: The supernatant comprising the soluble MTP is dialysed; from tissue; host or cells: golden hamster liver microsomes, deoxycholate-solubilised supernatant
T1 sequence (P55158 19-895): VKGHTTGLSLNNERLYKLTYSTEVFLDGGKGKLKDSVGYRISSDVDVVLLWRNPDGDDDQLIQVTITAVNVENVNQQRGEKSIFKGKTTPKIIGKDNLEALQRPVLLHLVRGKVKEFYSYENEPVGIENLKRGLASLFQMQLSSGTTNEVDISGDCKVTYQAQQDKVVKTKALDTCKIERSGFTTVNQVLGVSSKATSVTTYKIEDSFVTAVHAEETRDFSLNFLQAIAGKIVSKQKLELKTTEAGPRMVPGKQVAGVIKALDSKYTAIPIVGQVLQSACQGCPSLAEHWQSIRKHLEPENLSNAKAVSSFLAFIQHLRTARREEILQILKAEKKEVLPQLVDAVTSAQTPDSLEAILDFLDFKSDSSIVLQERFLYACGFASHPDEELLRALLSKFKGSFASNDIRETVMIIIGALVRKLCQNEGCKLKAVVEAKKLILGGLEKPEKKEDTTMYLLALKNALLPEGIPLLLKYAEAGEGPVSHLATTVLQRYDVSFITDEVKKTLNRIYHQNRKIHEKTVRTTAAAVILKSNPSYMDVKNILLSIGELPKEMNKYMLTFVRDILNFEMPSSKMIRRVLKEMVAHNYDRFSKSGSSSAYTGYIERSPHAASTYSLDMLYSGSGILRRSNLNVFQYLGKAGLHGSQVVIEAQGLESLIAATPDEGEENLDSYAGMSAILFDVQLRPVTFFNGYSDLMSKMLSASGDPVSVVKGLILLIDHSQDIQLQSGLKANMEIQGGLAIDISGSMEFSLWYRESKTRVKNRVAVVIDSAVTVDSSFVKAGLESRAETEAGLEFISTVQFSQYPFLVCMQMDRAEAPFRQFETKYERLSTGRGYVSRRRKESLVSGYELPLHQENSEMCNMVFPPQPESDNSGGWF
The assay can be described thus: Inhibition of MTP activity: transfer of [3H]-triolein from donor liposomes to biotinylated LDL, SPA. As to conditions: MTP from golden hamster liver; incubation 18-24 hours at 37° C. It is filed as biochemical. How it is done: The inhibition of the activity of microsomal triglyceride transfer protein (MTP) was tested by using the following operating protocol.
The inhibition of MTP activity with a compound can be quantified by observing the inhibition of the transfer of a labelled triglyceride, from a donor particle to an acceptor particle, in the presence of MTP. The procedure for the preparation of MTP is based on the method by Wetterau and Zilversmit (Biochem. Biophys. Acta (1986) 875, 610). A few grams of golden hamster liver are taken and then rinsed several times in a 250 mM sucrose solution at 0° C. All the following steps proceed at +4° C. A homogenate at a concentration of 50% in 250 mM sucrose is prepared using a Teflon mill and then centrifuged for 10 minutes at 10 000×g at +4° C. The supernatant is then centrifuged at 105 000×g for 75 minutes at +4° C. The supernatant is discarded and the microsomal pellet is taken up in 3 ml (per g of starting liver) of Tris/HCl 150 mM pH 8.0. 1-ml aliquot fractions are stored at −80° C. until the time of use.
After thawing a fraction of microsomes (1 ml), 12 ml of refrigerated Tris/HCl 50 mM, KCl 50 mM, MgCl2 5 mM pH 7.4 buffers and 1.2 ml of deoxycholate (0.54% in water) are added. After incubation for 30 minutes at +4° C. with gentle agitation, the suspension is centrifuged at […] for 75 minutes. […]
The reaction mixture is prepared in untreated ½ well white plates (Corning Costar) by addition, in the following order, of: 5 μl of HEPES 50 mM, NaCl 150 mM, BSA 0.1% (w/v), 0.05% sodium azide (w/v), pH 7.4 buffer; 5 μl of liposomes; 5 μl of LDL-biot; 5 μl of test products in DMSO; 5 μl of MTP. After incubation for 18-24 hours at 37° C., the reaction is stopped adding 100 μl of Amersham SPA (Scintillation Proximity Assay) beads coupled to streptavidin, and the radioactivity is counted using a Top Count (Packard) machine at least one hour later. The inhibition of the transfer of the triglycerides with a compound is reflected by a reduction in the transferred radioactivity. […]

Assay [2] deals with apo B secretion in HepG2 cells. Put plainly: Inhibition of ApoB secretion in HepG2 cells, sandwich ELISA. The class given is cell-based. As to conditions: 24 hours incubation, ELISA specific for human apo B. How it is done:
The activity of a compound according to the invention can be evaluated by measuring the inhibition of apo B secretion in HepG2 cells.
The HepG2 cells (ECACC No. 85011430) are used as model in the study of the in vitro hepatic secretion of lipoproteins (Dixon J. and Ginsberg H., J. Lipid. Res., 1993, 34, 167-179).
The HepG2 cells are cultured in Dulbecco's modified Eagle's medium comprising 10% foetal calf serum (DMEM and FBS-Gibco) in 96-well plates under an atmosphere of 5% carbon dioxide for 24 hours (about 70% confluence).
The test compounds are dissolved at a concentration of 2 or 10 mM in dimethyl sulfoxide (DMSO). Serial dilutions (1:3.16) are made in DMSO and are added (1:200—Robot Multimek Beckman) to the growth medium (200 μL) and then finally incubated for 24 hours in the various wells containing the HepG2 cells.
The 24-hour culture supernatant diluted to 1:5 (phosphate-buffered saline: PBS comprising 1% bovine serum albumin) is tested according to a sandwich-ELISA method specific for human apo B.
The results are expressed in terms of IC50, i.e. the concentration that produces a 50% inhibition of apo B secretion in the HepG2 cells.

Consider `CS(=O)(=O)c1ccc(CNC(=O)C(CCCCn2cc(-c3ccccc3)c3cccnc32)C2CCCCC2)cc1` (stereo not drawn), for which the results for the IC50 in assay [1] and in assay [2] were 529 nM and 3 nM, respectively.

`O=C(NCc1ccccc1)C(CCCCn1cc(-c2ccccc2)c2cccnc21)C1CCCCCC1` (stereo not drawn): the results for the IC50 in assay [1] and in assay [2] were 175 nM and 15 nM, respectively.

Regarding `O=C(NCc1ccncc1)C(CCCCCn1cc(-c2ccccc2)c2cccnc21)C1CCCC1` (stereo not drawn), the results for the 50% inhibitory concentration (IC50) in assay [1] and in assay [2] were 381 nM and 18 nM, respectively.
